Measured values taken from US5374645A (Ciba-Geigy Corporation, priority 1993, dated 1994).
Where two headings read alike, the source gives them in different places.

Key:
Rabbits = settings: rabbit, in vivo
[1] = not given; remark: listed apart in the source

Row | Terbutaline Flux (pH 3.8) | relative flux (flux in water case as unity) (pH 3.8) | Terbutaline Flux (pH 4.2) | relative flux (flux in water case as unity) (pH 4.2) | Terbutaline Flux ([1]; pH 3.8) | relative flux (flux in water case as unity) ([1]; pH 3.8) | Terbutaline Flux ([1]; pH 4.4) | relative flux (flux in water case as unity) ([1]; pH 4.4) | Terbutaline Flux ([1]; pH 4.6) | relative flux (flux in water case as unity) ([1]; pH 4.6) | Terbutaline Flux ([1]; pH 4.9) | relative flux (flux in water case as unity) ([1]; pH 4.9) | Terbutaline Flux ([1]; pH 5) | relative flux (flux in water case as unity) ([1]; pH 5) | SMILES | classification as primary irritant or corrosive by dermal application (Rabbits)
1 | – | – | – | – | – | – | – | – | – | – | – | – | – | – | CC(C)O [Isopropanol, isopropanol] | neither pure isopropanol nor aqueous isopropanol are classified as primary irritants or as corrosives
2 | 0.1 mcg/cm^2 /hr | 1 | 4.1 mcg/cm^2 /hr | 40 | 0.1 mcg/cm^2 /hr | 1 | 16.3 mcg/cm^2 /hr | 163 | 12.8 mcg/cm^2 /hr | 128 | 16.1 mcg/cm^2 /hr | 161 | 5.3 mcg/cm^2 /hr | 53 | CC(C)(C)NCC(O)c1cc(O)cc(O)c1 (stereo not drawn) [Terbutaline, terbutaline] | –
